Columns and labels:
Format in all cases: in vivo
[1] = test system: pest eggs of Tetranychus cinnabarinus; assay: Effect on hatching of pest eggs of Tetranychus cinnabarinus, leaf disc method; settings: for Hatching rate (%): 7 days after insecticide delivery
Procedure: (§1) • (1) Preparation of leaf discs containing eggs: 20 female adult mites of Tetranychus cinnabarinus were transferred onto leaf discs of Vicia faba with a diameter of 2.0 cm (with wetted filter paper at the bottom), then covered it with a lidded culture dish and cultivated under moisturizing conditions, the adult mites were removed within 36 hours and microscopic examination and counting were performed on leaf discs containing eggs. • (2) Investigation of egg population base: Before pesticide soaking, a microscopic examination was conducted on the egg basic number of each leaf disc, with 2 replicates set for each treatment. • (3) Pesticide soaking treatment: The leaf butterflies loaded with mite eggs were soaked in clear water and sulfite compounds for 10 seconds, respectively, then taken out and cultivated under moisturizing conditions. Each treatment should be repeated for no less than 3 times. • (4) Cultivation and observation: The […] were cultivated under normal conditions. Five days after insecticide delivery, the hatching status of mite eggs was investigated. • Note: The temperature and humidity conditions of the constant temperature and humidity incubator after the treatment should be controlled so as to avoid excessive temperature differences, which may cause generation and dripping of condensate water in the culture dish, resulting in abnormal death of eggs due to soaking in water; it is also necessary to ensure sufficient strong ambient light, without directing irradiating the leaves. • (5) Survey of Results: The experimental materials of each treatment group were regularly hydrated and moisturized, and the hatching of eggs was observed. On the 7th day after insecticide delivery, the number of hatched eggs for each treatment was recorded, and the survey of results was recorded in the original notebook. According to the experimental requirements and characteristics of agents, the survey time can be shortened or extended. • 1) Surveying and recording the number of hatched eggs for each treatment. • 2) Photographing and recording whether there was any pesticide damage to the leaf discs of Vicia faba. • 3) Recording the developmental status of experimental mite eggs, behavior status of nymph mites, including abnormal phenomena such as delayed or stopped development of mite eggs, difficulty in breaking hull for nymph mites, or painful struggles after hatching, etc. • (6) Calculation method: Based on the survey data, the prevention and control effect of each treatment was calculated according to the following formula, and the calculation results were kept to two decimal places. [formula] [formula] [table]

[2] = test system: eggs of Tetranychus urticae; assay: Effect on hatching of eggs of Tetranychus urticae, leaf disc method; settings: 5 ppm; for Hatching rate (%): 5 days after insecticide delivery
Procedure: as §1, with “extended.” for “extended. • 1) Surveying and recording the number of hatched eggs for each treatment. • 2) Photographing and recording whether there was any pesticide damage to the leaf discs of Vicia faba. • 3) Recording the developmental status of experimental mite eggs, behavior status of nymph mites, including abnormal phenomena such as delayed or stopped development of mite eggs, difficulty in breaking hull for nymph mites, or painful struggles after hatching, etc. • (6) Calculation method: Based on the survey data, the prevention and control effect of each treatment was calculated according to the following formula, and the calculation results were kept to two decimal places. [formula] [formula] [table]”
(§2) • 1) Surveying and recording the number of hatched eggs for each treatment. • 2) Photographing and recording whether there was any pesticide damage to the leaf discs of Vicia faba. • 3) Recording the developmental status of experimental mite eggs, behavior status of nymph mites, including abnormal phenomena such as delayed or stopped development of mite eggs, difficulty in breaking hull for nymph mites, or painful struggles after hatching, etc. • (6) Calculation method: Based on the survey data, the prevention and control effect of each treatment was calculated according to the following formula, and the calculation results were kept to two decimal places.
(§3) This test adopted the method in Test Example 1 of technical section, mainly used leaf disc method to explore the inhibitory effect on hatching of eggs of Tetranychus urticae by compounds 1-(S,S), 1-(S,R), 1-(R,R), 1-(R,S), 1′-(S,S), 1′-(S,R), 1′-(R,R), 1′-(R,S), compound 1, compound 1′, S-10, R-10, S-10′, R-10′, compound 10, compound 10′, compound 19-(S,S), 19-(S,R), 19-(R,R), 19-(R,S), 19′-(S,S), 19′-(S,R), 19′-(R,R), 19′-(R,S), compound 19, and compound 19′. The concentration of all compounds was 5 ppm.

eggs of Panonychus citri = assay: Effect on hatching of eggs of Panonychus citri, leaf disc method; settings: 1 ppm; for Hatching rate (%), Replicate 1 / Hatching rate (%), Replicate 2 / Hatching rate (%), Replicate 3 / Number of hatched larvae 5 days after insecticide delivery, Replicate 1 / Number of hatched larvae 5 days after insecticide delivery, Replicate 2 / Number of hatched larvae 5 days after insecticide delivery, Replicate 3: Panonychus citri eggs; for Hatching rate (%), Replicate 1 / Hatching rate (%), Replicate 2 / Hatching rate (%), Replicate 3: 5 days after delivery; for Number of hatched larvae 5 days after insecticide delivery, Replicate 1 / Number of hatched larvae 5 days after insecticide delivery, Replicate 2 / Number of hatched larvae 5 days after insecticide delivery, Replicate 3: leaf disc
Procedure: as §1, with “extended.” for “extended. • 1) Surveying and recording the number of hatched eggs for each treatment. • 2) Photographing and recording whether there was any pesticide damage to the leaf discs of Vicia faba. • 3) Recording the developmental status of experimental mite eggs, behavior status of nymph mites, including abnormal phenomena such as delayed or stopped development of mite eggs, difficulty in breaking hull for nymph mites, or painful struggles after hatching, etc. • (6) Calculation method: Based on the survey data, the prevention and control effect of each treatment was calculated according to the following formula, and the calculation results were kept to two decimal places. [formula] [formula] [table]”
as §2
as §3, with “the” for “the inhibitory”, “Panonychus citri” for “Tetranychus urticae”, “1” for “5”

[3] = Replicate 1, listed as 1-(R, R)
[4] = Replicate 2, listed as 1-(R, R)
[5] = Replicate 1, listed as 1-(R, S)
[6] = Replicate 2, listed as 1-(R, S)
[7] = Replicate 1, listed as 1-(S, R)
[8] = Replicate 2, listed as 1-(S, R)

Structure (SMILES) | Hatching rate (%) ([1]; 0.25 mg/L, Replicate 1) | Hatching rate (%) ([1]; 0.25 mg/L, Replicate 2) | Number of hatched larvae 7 days after insecticide delivery ([1]; 0.25 mg/L, Replicate 1) | Number of hatched larvae 7 days after insecticide delivery ([1]; 0.25 mg/L, Replicate 2) | Hatching rate (%) ([1]; 0.5 mg/L, Replicate 1) | Hatching rate (%) ([1]; 0.5 mg/L, Replicate 2) | Number of hatched larvae 7 days after insecticide delivery ([1]; 0.5 mg/L, Replicate 1) | Number of hatched larvae 7 days after insecticide delivery ([1]; 0.5 mg/L, Replicate 2) | Hatching rate (%) ([1]; 1 mg/L, Replicate 1) | Hatching rate (%) ([1]; 1 mg/L, Replicate 2) | Number of hatched larvae 7 days after insecticide delivery ([1]; 1 mg/L, Replicate 1) | Number of hatched larvae 7 days after insecticide delivery ([1]; 1 mg/L, Replicate 2) | other results
C[C@H](COS(=O)OCCF)Oc1ccc(Cl)cc1Cl (stereo partly drawn) [1-(R,R)] | 45.45% | 45.10% | 36 | 28 | 4.26% | 5.56% | 45 | 68 | 0.00% | 0.00% | 56 | 62 | inhibitory effect on the hatching of pest eggs of Tetranychus cinnabarinus (in words) ([1]; 1 ppm): excellent inhibitory effects; inhibitory activity on the hatching of eggs of Tetranychus urticae (in words) [2]: strong inhibitory activities; Hatching rate (%) [2, 3]: 0.00%; Hatching rate (%) [2, 4]: 0.00%; Number of hatched larvae 5 days after insecticide delivery [2, 3]: 0; Number of hatched larvae 5 days after insecticide delivery [2, 4]: 0; inhibitory effect on the hatching of eggs of Panonychus citri (in words) (eggs of Panonychus citri): good inhibitory effects; Hatching rate (%), Replicate 1 (eggs of Panonychus citri; listed as 1-(R, R)): 0.00%; Hatching rate (%), Replicate 2 (eggs of Panonychus citri; listed as 1-(R, R)): 0.00%; Hatching rate (%), Replicate 3 (eggs of Panonychus citri; listed as 1-(R, R)): 0.00%; Number of hatched larvae 5 days after insecticide delivery, Replicate 1 (eggs of Panonychus citri; listed as 1-(R, R)): 0; Number of hatched larvae 5 days after insecticide delivery, Replicate 2 (eggs of Panonychus citri; listed as 1-(R, R)): 0; Number of hatched larvae 5 days after insecticide delivery, Replicate 3 (eggs of Panonychus citri; listed as 1-(R, R)): 0
C[C@H](COS(=O)OCCF)Oc1ccc(Cl)cc1Cl (stereo partly drawn) [1-(R,S)] | 74.51% | 76.47% | 13 | 14 | 43.66% | 48.98% | 40 | 25 | 4.69% | 6.67% | 61 | 42 | Hatching rate (%) [2, 5]: 14.10%; Hatching rate (%) [2, 6]: 12.70%; Number of hatched larvae 5 days after insecticide delivery [2, 5]: 11; Number of hatched larvae 5 days after insecticide delivery [2, 6]: 88; Hatching rate (%), Replicate 1 (eggs of Panonychus citri; listed as 1-(R, S)): 7.14%; Hatching rate (%), Replicate 2 (eggs of Panonychus citri; listed as 1-(R, S)): 8.39%; Hatching rate (%), Replicate 3 (eggs of Panonychus citri; listed as 1-(R, S)): 8.14%; Number of hatched larvae 5 days after insecticide delivery, Replicate 1 (eggs of Panonychus citri; listed as 1-(R, S)): 7; Number of hatched larvae 5 days after insecticide delivery, Replicate 2 (eggs of Panonychus citri; listed as 1-(R, S)): 12; Number of hatched larvae 5 days after insecticide delivery, Replicate 3 (eggs of Panonychus citri; listed as 1-(R, S)): 7
C[C@@H](COS(=O)OCCF)Oc1ccc(Cl)cc1Cl (stereo partly drawn) [1-(S,R)] | 59.57% | 76.09% | 19 | 11 | 35.29% | 31.25% | 33 | 44 | 2.56% | 0.00% | 76 | 64 | Hatching rate (%) [2, 7]: 10.87%; Hatching rate (%) [2, 8]: 12.16%; Number of hatched larvae 5 days after insecticide delivery [2, 7]: 10; Number of hatched larvae 5 days after insecticide delivery [2, 8]: 9; Hatching rate (%), Replicate 1 (eggs of Panonychus citri; listed as 1-(S, R)): 5.83%; Hatching rate (%), Replicate 2 (eggs of Panonychus citri; listed as 1-(S, R)): 5.75%; Hatching rate (%), Replicate 3 (eggs of Panonychus citri; listed as 1-(S, R)): 6.06%; Number of hatched larvae 5 days after insecticide delivery, Replicate 1 (eggs of Panonychus citri; listed as 1-(S, R)): 6; Number of hatched larvae 5 days after insecticide delivery, Replicate 2 (eggs of Panonychus citri; listed as 1-(S, R)): 5; Number of hatched larvae 5 days after insecticide delivery, Replicate 3 (eggs of Panonychus citri; listed as 1-(S, R)): 8

Source: US20260184675A1, “CHIRAL ISOMERIC SULFITE COMPOUND AND APPLICATION THEREOF” (Chengdu Hanova BioSciences Co., Ltd, priority 2024, published 2026)
